Legend:
[1] = biological target: T1, human sphingosine-1-phosphate receptor 1 (S1P1) (Homo sapiens (Human), UniProt P21453); test: Inhibition of cAMP production (HTRF cAMP HiRange), S1P1 CHO-K1 cells; type: cell-based; conditions: for Emax: CHO-K1, efficacy (SPAN) normalized to fingolimod, read-out: hS1P1 cAMP SPAN; for hS1P1 cAMP pEC50 / EC50: inhibition of cAMP production, S1P1 CHO-K1 cells; for EC50: read-out: hS1P1 cAMP pEC50 (converted)
In short: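 CHO-K1 cells stably co-expressing human S1P1 (C-terminal Prolink tag) and EA-β-arrestin2 were grown in AssayComplete Media 6 at 37° C. and 5% CO2, plated, and incubated overnight. Agonist-driven inhibition of intracellular cAMP was read by TR-FRET with the HTRF cAMP HiRange kit on a PheraStar reader. Potency is pEC50, and efficacy (SPAN) is normalized to fingolimod.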
Target sequence in this assay (P21453 whole entry, looked up): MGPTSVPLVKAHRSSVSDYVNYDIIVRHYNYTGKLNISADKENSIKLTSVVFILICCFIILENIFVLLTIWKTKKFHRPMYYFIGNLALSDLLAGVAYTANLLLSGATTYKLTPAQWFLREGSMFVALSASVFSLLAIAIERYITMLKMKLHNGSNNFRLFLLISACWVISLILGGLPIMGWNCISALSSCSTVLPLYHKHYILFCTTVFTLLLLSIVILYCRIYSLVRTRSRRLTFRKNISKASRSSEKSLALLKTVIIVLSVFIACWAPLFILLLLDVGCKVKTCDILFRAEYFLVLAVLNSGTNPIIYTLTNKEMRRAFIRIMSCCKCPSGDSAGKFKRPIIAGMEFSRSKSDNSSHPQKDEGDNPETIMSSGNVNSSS

[2] = biological target: T1, human sphingosine-1-phosphate receptor 1 (S1P1); test: β-Arrestin2 recruitment assay (PathHunter), S1P1 CHO-K1 cells; type: cell-based; conditions: for Emax: CHO-K1, efficacy (SPAN) normalized to fingolimod, read-out: hS1P1 B-arrestin2 SPAN; for hS1P1 B-arrestin2 pEC50 / EC50: β-arrestin2 recruitment, S1P1 CHO-K1 cells; for EC50: read-out: hS1P1 B-arrestin2 pEC50 (converted)
In short: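 Enzyme-fragment complementation read-out: agonist-driven β-arrestin2 binding to ProLink-tagged human S1P1 in stable CHO-K1 cells restores β-galactosidase, measured 1 h at room temperature after a 60 min 37° C. compound incubation. Potency as pEC50, efficacy relative to fingolimod (SPAN).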
Target sequence in this assay (P21453 whole entry, looked up): as above
Target sequence in this assay (P32121 whole entry partner, looked up): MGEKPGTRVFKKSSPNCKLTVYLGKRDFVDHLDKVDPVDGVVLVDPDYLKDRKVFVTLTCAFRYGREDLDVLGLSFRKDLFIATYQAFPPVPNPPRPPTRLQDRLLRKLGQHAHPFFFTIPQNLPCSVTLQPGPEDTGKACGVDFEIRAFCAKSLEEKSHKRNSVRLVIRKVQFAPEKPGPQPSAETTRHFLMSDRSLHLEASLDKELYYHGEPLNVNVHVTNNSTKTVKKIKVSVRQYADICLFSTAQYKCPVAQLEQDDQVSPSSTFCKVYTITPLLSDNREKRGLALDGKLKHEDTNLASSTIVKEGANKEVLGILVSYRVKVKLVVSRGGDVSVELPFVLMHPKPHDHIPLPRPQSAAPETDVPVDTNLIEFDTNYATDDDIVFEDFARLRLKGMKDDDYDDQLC

SMILES	Emax [1] [%]	hS1P1 cAMP pEC50 [1]	Emax [2] [%]	hS1P1 B-arrestin2 pEC50 [2]	EC50 [1] [nM]	EC50 [2] [µM]
CCC1(CC)CC(=O)c2cc(-c3nc(-c4ccc(O)cc4)no3)ccc2O1 [Compound 72, 2,2-diethyl-6-[3-(4-hydroxyphenyl)-1,2,4-oxadiazol-5-yl]chroman-4-one]	> 75	>6.5	> 75	>5	–	–
Cn1nnc2cc(-c3noc(-c4ccccc4Br)n3)ccc21 [Compound 73, 5-(2-bromophenyl)-3-(1-methyl-1H-benzo[d][1,2,3]triazol-5-yl)-1,2,4-oxadiazole]	< 75	<6.5	< 75	>5	–	–
Cc1ccc(-c2nc(-c3ccc4c(c3)nnn4C(C)C)no2)s1 [Compound 74, 5-[5-(5-methylthiophen-2-yl)-1,2,4-oxadiazol-3-yl]-1-(propan-2-yl)-1H-1,2,3-benzotriazole]	< 75	<6.5	< 75	<5	–	–
Cc1ccsc1-c1noc(-c2ccc3c(c2)nnn3CC(C)C)n1 [Compound 75, 1-(2-methylpropyl)-5-[3-(3-methylthiophen-2-yl)-1,2,4-oxadiazol-5-yl]-1H-1,2,3-benzotriazole]	< 75	>6.5	> 75	>5	–	–
CCCn1nnc2cc(-c3nc(-c4cc(C)cc(C)c4)no3)ccc21 [Compound 76, 5-[3-(3,5-dimethylphenyl)-1,2,4-oxadiazol-5-yl]-1-propyl-1H-1,2,3-benzotriazole]	< 75	<6.5	< 75	<5	–	–
Cc1cc(-c2noc(-c3ccc4c(c3)nnn4C3CCCC3)n2)ccn1 [Compound 77]	< 75	–	< 75	–	–	–
CC(C)n1nnc2cc(-c3noc(-c4cnccn4)n3)ccc21 [Compound 78, 3-(1-isopropyl-1H-benzo[d][1,2,3]triazol-5-yl)-5-(pyrazin-2-yl)-1,2,4-oxadiazole]	< 75	<6.5	< 75	<5	–	–
CC(C)n1nnc2cc(-c3nc(-c4ccccc4)no3)ccc21 [Compound 79, 5-(3-phenyl-1,2,4-oxadiazol-5-yl)-1-(propan-2-yl)-1H-1,2,3-benzotriazole]	> 75	>6.5	> 75	>5	–	–
FC(F)Oc1ccc(-c2noc(-c3ccc4c(c3)nnn4C3CCCC3)n2)cc1 [Compound 80, 1-cyclopentyl-5-{3-[4-(difluoromethoxy)phenyl]-1,2,4-oxadiazol-5-yl}-1H-1,2,3-benzotriazole]	< 75	>6.5	< 75	<5	–	–
COC(=O)Cn1nnc2cc(-c3noc(-c4ccccc4Br)n3)ccc21 [Compound 81, methyl 2-(5-(5-(2-bromophenyl)-1,2,4-oxadiazol-3-yl)-1H-benzo[d][1,2,3]triazol-1-yl)acetate]	> 75	–	< 75	–	> 316	> 10
Clc1ccc(-c2noc(-c3ccc4c(c3)nnn4C3CCOCC3)n2)s1 [Compound 82, 5-[3-(5-chlorothiophen-2-yl)-1,2,4-oxadiazol-5-yl]-1-(oxan-4-yl)-1H-1,2,3-benzotriazole]	< 75	<6.5	< 75	<5	–	–
Brc1ccccc1-c1noc(-c2ccc3c(c2)nnn3C2CC2)n1 [Compound 83, 5-[3-(2-bromophenyl)-1,2,4-oxadiazol-5-yl]-1-cyclopropyl-1H-1,2,3-benzotriazole]	> 75	>6.5	> 75	>5	–	–
FC(F)(F)Oc1ccccc1-c1nc(-c2ccc3c(c2)nnn3C2CCCC2)no1 [Compound 84, 3-(1-cyclopentyl-1H-benzo[d][1,2,3]triazol-5-yl)-5-(2-(trifluoromethoxy)phenyl)-1,2,4-oxadiazole]	< 75	<6.5	> 75	>5	–	–
FC(F)(F)c1cc(-c2noc(-c3ccc4c(c3)nnn4C3CC3)n2)ccc1OCc1ccccc1 [Compound 85, 5-{3-[4-(benzyloxy)-3-(trifluoromethyl)phenyl]-1,2,4-oxadiazol-5-yl}-1-cyclopropyl-1H-1,2,3-benzotriazole]	< 75	<6.5	< 75	<5	–	–
Cc1cc(-c2nc(-c3ccc4c(c3)nnn4C(C)C)no2)ccn1 [Compound 86, 3-(1-isopropyl-1H-benzo[d][1,2,3]triazol-5-yl)-5-(2-methylpyridin-4-yl)-1,2,4-oxadiazole]	< 75	<6.5	> 75	<5	–	–
Cc1ccc(-c2noc(-c3ccc4c(c3)nnn4C3CC3)n2)cn1 [Compound 87, 1-cyclopropyl-5-[3-(6-methylpyridin-3-yl)-1,2,4-oxadiazol-5-yl]-1H-1,2,3-benzotriazole]	< 75	<6.5	< 75	<5	–	–
CC(C)n1nnc2cc(-c3nc(Cc4ccccc4)no3)ccc21 [Compound 88, 5-(3-benzyl-1,2,4-oxadiazol-5-yl)-1-(propan-2-yl)-1H-1,2,3-benzotriazole]	< 75	<6.5	< 75	<5	–	–
CC(C)n1nnc2cc(-c3noc(C4CCOCC4)n3)ccc21 [Compound 89, 5-[5-(oxan-4-yl)-1,2,4-oxadiazol-3-yl]-1-(propan-2-yl)-1H-1,2,3-benzotriazole]	< 75	<6.5	< 75	<5	–	–
COc1ccc(-c2nc(-c3ccc4c(c3)nnn4C(C)C)no2)c(C)c1 [Compound 90, 3-(1-isopropyl-1H-benzo[d][1,2,3]triazol-5-yl)-5-(4-methoxy-2-methylphenyl)-1,2,4-oxadiazole]	> 75	<6.5	> 75	>5	–	–
COc1ccc(-c2noc(-c3ccc4c(c3)nnn4C3CCCC3)n2)c2ccccc12 [Compound 91, 1-cyclopentyl-5-[3-(4-methoxynaphthalen-1-yl)-1,2,4-oxadiazol-5-yl]-1H-1,2,3-benzotriazole]	< 75	<6.5	< 75	<5	–	–
c1ccc(Cc2noc(-c3ccc4c(c3)nnn4C3CCCC3)n2)cc1 [Compound 92, 5-(3-benzyl-1,2,4-oxadiazol-5-yl)-1-cyclopentyl-1H-1,2,3-benzotriazole]	< 75	–	< 75	–	> 316	> 10
Cc1ccncc1-c1noc(-c2ccc3c(c2)nnn3C2CC2)n1 [Compound 94, 1-cyclopropyl-5-[3-(4-methylpyridin-3-yl)-1,2,4-oxadiazol-5-yl]-1H-1,2,3-benzotriazole]	> 75	<6.5	> 75	<5	–	–
Cc1ccccc1-c1noc(-c2ccc3c(c2)nnn3C2CCOCC2)n1 [Compound 95, 5-[3-(2-methylphenyl)-1,2,4-oxadiazol-5-yl]-1-(oxan-4-yl)-1H-1,2,3-benzotriazole]	< 75	<6.5	< 75	<5	–	–

Reference: patent US11912693B2, “Compounds for modulating S1P1 activity and methods of using the same” (TREVENA, INC., priority 2017, dated 2024)
